Laboratory results from patent US20240208994A1, “PLASMA KALLIKREIN INHIBITORS” (Merck Sharp & Dohme LLC, priority 2021, published 2024).

What was measured:
human factor XIa = human factor XIa (Homo sapiens, UniProt P03951); assay: Factor XIa Assay; assay type: biochemical; details: human factor XIa 0.04 nM, 30 min pre-incubation at 25° C., substrate GPR-AFC, pH 7.4, 60 min incubation; read-out: FXIa IC50
Protocol: (§1) The effectiveness of a compound of the present invention as an inhibitor of Coagulation factor XIa can be determined using a relevant purified serine protease, and an appropriate synthetic substrate. The rate of hydrolysis of the chromogenic or fluorogenic substrate by the relevant serine protease was measured both in the absence and presence of compounds of the present invention. Assays were conducted at rt or at 37° C. […] A decrease in the rate of fluorescence change in the presence of inhibitor is indicative of enzyme inhibition. Such methods are known to one skilled in the art. The results of this assay are expressed as the half-maximal inhibitory concentrations (IC50), or the inhibitory constant, Ki.
Compounds were pre-incubated for 30 min at 25° C. with human (0.04 nM) factor XIa in 50 mM HEPES buffer with 150 mM sodium chloride, 5 mM calcium chloride, 0.1% PEG 8000, pH 7.4. factor XIa enzymatic activity was determined by addition of the substrate glycine-proline-arginine-7-amido-4-trifluoromethylcoumarin (GPR-AFC) and measurement of the fluorescence at 400/505 nm after a 60 min incubation at 25° C. The % inhibition for each data point was calculated from the data and analyzed using the log (inhibitor) vs. response four parameters equation to determine the half-maximal inhibitory concentrations (IC50). The IC50 were converted to equilibrium inhibitory constants (Ki) using the Cheng-Prusoff equation.

Human plasma kallikrein = biological target: T1, Human plasma kallikrein (Homo sapiens, UniProt P03952); assay: Plasma Kallikrein Assay; assay type: biochemical; details: purified Human plasma kallikrein 0.5 nM, substrate Acetyl-K-P-R-AFC, HEPES pH 7.4, fluorescence 405 Ex/510 Em; read-out: PKal IC50
T1 construct: yields a heavy chain (371 amino acids) and a light chain (248 amino acids); purchased Enzyme Research Laboratories
Protocol: as §1, with “plasma kallikrein” for “Coagulation factor XIa”
Plasma kallikrein determinations were made in 50 mM HEPES buffer at pH 7.4 containing 150 mM NaCl, 5 mM CaCl2), and 0.1% PEG 8000 (polyethylene glycol: Fisher Scientific). Determinations were made using purified Human plasma kallikrein at a final concentration of 0.5 nM (Enzyme Research Laboratories) and the synthetic substrate, Acetyl-K-P-R-AFC (Sigma #C6608) at a concentration of […].
Activity assays were performed by diluting a stock solution of substrate at least tenfold to a final concentration ≤0.2 Km into a solution containing enzyme or enzyme equilibrated with inhibitor. Times required to achieve equilibration between enzyme and inhibitor were determined in control experiments. The reactions were performed under linear progress curve conditions and fluorescence increase measured at 405 Ex/510 Em nm. Values were converted to percent inhibition of the control reaction (after subtracting 100% Inhibition value). IC50 was determined by inflection point from a four parameter logistic curve fit. Ki was calculated using the Cheng Prusoff equation, Ki=IC50/(1+([S]/Km)).

human factor XIa, sequence (P03951 388-625 limits assumed): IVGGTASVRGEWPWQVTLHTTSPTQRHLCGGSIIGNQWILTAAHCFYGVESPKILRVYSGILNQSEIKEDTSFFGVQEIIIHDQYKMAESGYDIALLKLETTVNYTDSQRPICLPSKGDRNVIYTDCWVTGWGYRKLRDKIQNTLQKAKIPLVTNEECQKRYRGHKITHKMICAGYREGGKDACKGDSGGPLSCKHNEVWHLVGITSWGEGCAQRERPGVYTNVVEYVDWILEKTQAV
human factor XIa, sequence (P03951 19-387 partner limits assumed): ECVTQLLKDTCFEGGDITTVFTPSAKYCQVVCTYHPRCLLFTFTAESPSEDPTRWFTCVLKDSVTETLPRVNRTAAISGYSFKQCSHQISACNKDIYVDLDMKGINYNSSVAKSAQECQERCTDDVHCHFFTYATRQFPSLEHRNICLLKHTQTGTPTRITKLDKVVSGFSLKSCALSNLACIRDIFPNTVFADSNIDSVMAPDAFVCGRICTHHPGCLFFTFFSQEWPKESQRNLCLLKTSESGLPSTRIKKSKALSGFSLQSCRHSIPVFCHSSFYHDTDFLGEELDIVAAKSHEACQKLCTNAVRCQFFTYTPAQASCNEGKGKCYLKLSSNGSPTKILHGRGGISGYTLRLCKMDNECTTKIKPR
T1 sequence (P03952 391-638 limits assumed): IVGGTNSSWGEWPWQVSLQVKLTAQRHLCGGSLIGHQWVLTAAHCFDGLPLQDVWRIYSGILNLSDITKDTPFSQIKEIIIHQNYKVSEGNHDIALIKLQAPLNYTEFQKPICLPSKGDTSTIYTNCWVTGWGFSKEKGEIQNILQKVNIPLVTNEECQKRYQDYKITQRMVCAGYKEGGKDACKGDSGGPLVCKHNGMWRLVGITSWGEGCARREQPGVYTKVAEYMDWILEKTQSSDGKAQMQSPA
T1 sequence (P03952 20-390 partner limits assumed): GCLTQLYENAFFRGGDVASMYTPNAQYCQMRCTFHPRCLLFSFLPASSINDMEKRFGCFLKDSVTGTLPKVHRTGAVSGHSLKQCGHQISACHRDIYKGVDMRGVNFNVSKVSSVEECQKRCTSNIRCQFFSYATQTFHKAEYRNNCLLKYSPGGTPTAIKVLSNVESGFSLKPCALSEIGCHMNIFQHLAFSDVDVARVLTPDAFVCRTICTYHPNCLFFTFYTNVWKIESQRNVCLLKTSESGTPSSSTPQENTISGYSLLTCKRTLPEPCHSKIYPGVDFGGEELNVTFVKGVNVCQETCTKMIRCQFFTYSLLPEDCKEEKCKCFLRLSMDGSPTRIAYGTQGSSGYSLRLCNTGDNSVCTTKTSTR

SMILES	IC50 (human factor XIa)	IC50 (Human plasma kallikrein)
Nc1cc(-c2cccc(Cl)c2)nn1CC(=O)N1CCC[C@@]2(C1)OC(=O)Nc1ccc(Cl)c(F)c12 [Example 16, (R)-1′-(2-(5-Amino-3-(3-chlorophenyl)-1H-pyrazol-1-yl)acetyl)-6-chloro-5-fluorospiro[benzo[d][1,3]oxazine-4,3′-piperidin]-2(1H)-one]	2820 nM	20.4 nM
Nc1cc(-c2ccc(OC(F)F)cc2)nn1CC(=O)N1CC[C@@]2(C1)OC(=O)Nc1ccc(Cl)c(F)c12 [Example 66, (R)-1′-(2-(5-Amino-3-(4-(difluoromethoxy)pheny1)-1H-pyrazol-1-yl)acetyl)-6-chloro-5-fluorospiro[benzo[d] [1,3]oxazine-4,3′-pyrrolidin]-2(1H)-one]	640 nM	10.3 nM
Nc1c(Cl)c(-c2ncccc2F)nn1CC(=O)N1CCC[C@@]2(C1)OC(=O)Nc1ccc(Cl)c(F)c12 [Example 34, (R)-1′-(2-(5-Amino-4-chloro-3-(3-fluoropyridin-2-y1)-1H-pyrazol-1-yl)acetyl)-6-chloro-5-fluorospiro[benzo[d][1,3]oxazine-4,3′-piperidin]-2(1H)-one]	177 nM	8.9 nM
Nc1cc(-c2ccc(Cl)cc2)nn1CC(=O)N1CC[C@@]2(C1)OC(=O)Nc1ccc(Cl)c(F)c12 [Example 65, (R)-1′-(2-(5-Amino-3-(4-chlorophenyl)-1H-pyrazol-1-yl)acetyl)-6-chloro-5-fluorospiro[benzo[d] [1,3]oxazine-4,3′-pyrrolidin]-2(1H)-one]	1560 nM	21.9 nM
Nc1cc(-c2ncc(F)cc2F)nn1CC(=O)N1CC[C@@]2(C1)OC(=O)Nc1ccc(Cl)c(F)c12 [Example 27, (R)-1′-(2-(5-Amino-3-(3,5-difluoropyridin-2-yl)-1H-pyrazol-1-yl)acetyl)-6-chloro-5-fluorospiro[benzo[d][1,3]oxazine-4,3′-pyrrolidin]-2(1H)-one]	424 nM	25.3 nM
Nc1cc(-c2ccc3c(c2)OCO3)nn1CC(=O)N1CC[C@@]2(C1)OC(=O)Nc1ccc(Cl)c(F)c12 [Example 2, (R)-1′-(2-(5-Amino-3-(benzo[d][1,3]dioxol-5-y1)-1H-pyrazol-1-yl)acetyl)-6-chloro-5-fluorospiro[benzo[d][1,3]oxazine-4,3′-pyrrolidin]-2(1H)-one]	653 nM	8 nM
Nc1cc(-c2ccccc2F)nn1CC(=O)N1CC[C@@]2(C1)OC(=O)Nc1ccc(Cl)c(F)c12 [Example 56, (R)-1′-(2-(5-Amino-3-(2-fluorophenyl)-1H-pyrazol-1-yl)acetyl)-6-chloro-5-fluorospiro[benzo[d][1,3]oxazine-4,3′-pyrrolidin]-2(1H)-one]	165 nM	4.6 nM
Nc1c(Cl)c(-c2ccc(F)cc2F)nn1CC(=O)N1CC[C@@]2(C1)OC(=O)Nc1ccc(Cl)c(F)c12 [Example 19, (R)-1′-(2-(5-Amino-4-chloro-3-(2,4-difluorophenyl)-1H-pyrazol-1-yl)acetyl)-6-chloro-5-fluorospiro[benzo[d][1.3]oxazine-4,3′-pyrrolidin]-2(1H)-one 2,2,2-trifluoroacetate]	134 nM	30.3 nM
COc1ccccc1-c1cc(N)n(CC(=O)N2CC[C@@]3(C2)OC(=O)Nc2ccc(Cl)c(F)c23)n1 [Example 62, (R)-1′-(2-(5-Amino-3-(2-methoxyphenyl)-1H-pyrazol-1-yl)acetyl)-6-chloro-5-fluorospiro[benzo[d][1,3]oxazine-4,3′-pyrrolidin]-2(1H)-one]	505 nM	6.6 nM
Cc1cccc(-c2cc(N)n(CC(=O)N3CC[C@@]4(C3)OC(=O)Nc3ccc(Cl)c(F)c34)n2)c1 [Example 42, (R)-1′-(2-(5-Amino-3-(m-toly1)-1H-pyrazol-1-yl)acetyl)-6-chloro-5-fluorospiro[benzo[d][1,3]oxazine-4,3′-pyrrolidin]-2(1H)-one]	611 nM	15.1 nM
Nc1c(Cl)c(-c2ncc(F)cc2F)nn1CC(=O)N1CC[C@@]2(C1)OC(=O)Nc1ccc(Cl)c(F)c12 [Example 31, (R)-1′-(2-(5-Amino-4-chloro-3-(3,5-difluoropyridin-2-y1)-1H-pyrazol-1-yl)acetyl)-6-chloro-5-fluorospiro[benzo[d][1,3]oxazine-4,3′-pyrrolidin]-2(1H)-one]	1830 nM	32.1 nM
Nc1cc(-c2c(F)cccc2F)nn1CC(=O)N1CC[C@@]2(C1)OC(=O)Nc1ccc(Cl)c(F)c12 [Example 37, (R)-1′-(2-(5-Amino-3-(2,6-difluorophenyl)-1H-pyrazol-1-yl)acetyl)-6-chloro-5-fluorospiro[benzo[d][1.3]oxazine-4,3′-pyrrolidin]-2(1H)-one]	102 nM	2.2 nM
Cc1ccccc1-c1cc(N)n(CC(=O)N2CC[C@@]3(C2)OC(=O)Nc2ccc(Cl)c(F)c23)n1 [Example 54, (R)-1′-(2-(5-Amino-3-(o-tolyl)-1H-pyrazol-1-yl)acetyl)-6-chloro-5-fluorospiro[benzo[d][1,3]oxazine-4,3′-pyrrolidin]-2(1H)-one]	289 nM	5.1 nM
Nc1cc(-c2ccccc2Br)nn1CC(=O)N1CC[C@@]2(C1)OC(=O)Nc1ccc(Cl)c(F)c12 [Example 57, (R)-1′-(2-(5-Amino-3-(2-bromophenyl)-1H-pyrazol-1-yl)acetyl)-6-chloro-5-fluorospiro[benzo[d][1,3]oxazine-4,3′-pyrrolidin]-2(1H)-one]	190 nM	2.5 nM

Now from value to compound:

IC50 (human factor XIa)	IC50 (Human plasma kallikrein)	SMILES
506 nM	27.4 nM	Nc1cc(C2CC2)nn1CC(=O)N1CC[C@@]2(C1)OC(=O)Nc1ccc(Cl)c(F)c12 [Example 10]
225 nM	16.2 nM	Nc1cc(-c2ccco2)nn1CC(=O)N1CC[C@@]2(C1)OC(=O)Nc1ccc(Cl)c(F)c12 [Example 40, (R)-1′-(2-(5-Amino-3-(furan-2-y1)-1H-pyrazol-1-yl)acetyl)-6-chloro-5-fluorospiro[benzo[d] [1,3]oxazine-4,3′-pyrrolidin]-2(1H)-one]
280 nM	24.5 nM	Nc1c(Cl)c(-c2ncccn2)nn1CC(=O)N1CCC[C@@]2(C1)OC(=O)Nc1ccc(Cl)c(F)c12 [Example 35, (R)-1′-(2-(5-Amino-4-chloro-3-(pyrimidin-2-y1)-1H-pyrazol-1-yl)acetyl)-6-chloro-5-fluorospiro[benzo[d][1,3]oxazine-4,3′-piperidin]-2(1H)-one]
88 nM	2.4 nM	Nc1c2c(nn1CC(=O)N1CCC[C@@]3(C1)OC(=O)Nc1ccc(Cl)c(F)c13)-c1ccccc1C2 [Example 18, (R)-1′-(2-(3-Aminoindeno[1,2-c]pyrazol-2(4H)-yl)acetyl)-6-chloro-5-fluorospiro[benzo[d][1,3]oxazine-4,3′-piperidin]-2(1H)-one]
277 nM	38.8 nM	Nc1c2c(nn1CC(=O)N1CC[C@@]3(C1)OC(=O)Nc1ccc(Cl)c(F)c13)CCC2 [Example 13, (R)-1′-(2-(3-Amino-5,6-dihydrocyclopenta[c]pyrazo1-2(4H)-yl)acetyl)-6-chloro-5-fluorospiro[benzo[d] [1,3]oxazine-4,3′-pyrrolidin]-2(1H)-one]
286 nM	18.1 nM	Nc1cc(-c2nccs2)nn1CC(=O)N1CC[C@@]2(C1)OC(=O)Nc1ccc(Cl)c(F)c12 [Example 41, (R)-1′-(2-(5-Amino-3-(thiazol-2-y1)-1H-pyrazol-1-yl)acetyl)-6-chloro-5-fluorospiro[benzo[d] [1,3]oxazine-4,3′-pyrrolidin]-2(1H)-one]
254 nM	13 nM	Nc1cc(-c2cccs2)nn1CC(=O)N1CC[C@@]2(C1)OC(=O)Nc1ccc(Cl)c(F)c12 [Example 39, (R)-1′-(2-(5-Amino-3-(thiophen-2-y1)-1H-pyrazol-1-yl)acetyl)-6-chloro-5-fluorospiro[benzo[d] [1,3]oxazine-4,3′-pyrrolidin]-2(1H)-one]
